Experimental data: patent publication USRE48711E1, “Apoptosis signal-regulating kinase inhibitors” (Gilead Sciences, Inc., priority 2009, dated 2021)

Biological target: ASK1 (Apoptosis Signal-Regulating Kinase 1) (Homo sapiens (Human), UniProt Q99683)
Experiment: ASK1 (Apoptosis Signal-Regulating Kinase 1) TR-FRET Kinase Assay (Biochemical IC50)
Details: TR-FRET, biotin-MBP substrate, 20 min pre-incubation, ATP added as 300 μM solution
Protocol: The ability of compounds to inhibit ASK1 kinase activity was determined using a time resolved fluorescence resonance energy transfer [TR-FRET] assay utilizing biotinylated myelin basic protein [biotin-MBP] as the protein substrate. […] The enzyme was allowed to pre-incubate with compound for 20 minutes prior to initiating the kinase reaction with the addition of 5 μL/well 300 μM ATP in buffer (50 mM MOPS, pH 7.0, 5 mM Mg-acetate, 1 mM DTT, 5% DMSO) using the Decrac Fluidics Equator. The kinase reactions were allowed to proceed for 20 minutes at ambient temperature and were subsequently stopped with the addition of 5 μL/well 25 mM EDTA using the Deerac Fluidics Equator. […] The TR-FRET signal was then read on a Perkin. Elmer Envision plate reader after incubating the plates at ambient temperature for 2 hours.

Chain of ASK1 (Apoptosis Signal-Regulating Kinase 1) (Q99683 649-946): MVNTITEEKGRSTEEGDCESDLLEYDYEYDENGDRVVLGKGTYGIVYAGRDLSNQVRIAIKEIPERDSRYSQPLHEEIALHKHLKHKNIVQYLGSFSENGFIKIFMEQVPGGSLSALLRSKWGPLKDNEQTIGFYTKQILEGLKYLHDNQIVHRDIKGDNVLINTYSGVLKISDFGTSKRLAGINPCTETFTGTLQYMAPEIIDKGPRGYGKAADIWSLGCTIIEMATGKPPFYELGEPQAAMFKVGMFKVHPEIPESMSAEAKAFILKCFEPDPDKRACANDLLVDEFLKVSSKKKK

IC50 [nM] | Structure (SMILES)
11 | O=C(Nc1cccc(-c2nncn2C2CC2)c1)c1cc(-c2ccc(C3CCC3)nc2)ccn1 [Example 103, 6-cyclobutyl-N-(3-(4-cyclopropyl-4H-1,2,4-triazol-3-yl)phenyl)-3,4′-bipyridine-2′-carboxamide]
12 | O=C(Nc1cccc(-c2nncn2C2CC2)c1)c1cc(-c2ccc(OC3CC3)nc2)ccn1 [Example 104, 6-cyclopropoxy-N-(3-(4-cyclopropyl-4H-1,2,4-triazol-3-yl)phenyl)-3,4′-bipyridine-2′-carboxamide]
15 | O=C(Nc1cccc(-c2nncn2C2CC2)c1)c1cc(-c2ccc(N3CCNC3=O)cc2)ccn1 [Example 105, N-(3-(4-cyclopropyl-4H-1,2,4-triazol-3-yl)phenyl)-4-(4-(2-oxoimidazolidin-1-yl)phenyl)picolinamide]
8 | CCc1ccc(-c2ccnc(C(=O)Nc3cccc(-c4nncn4C4CC4)c3)c2)cn1 [Example 106, N-(3-(4-cyclopropyl-4H-1,2,4-triazol-3-yl)phenyl)-6-ethyl-3,4′-bipyridine-2′-carboxamide]
31 | O=C(Nc1cccc(-c2cncn2C2CC2)c1)c1cc(-c2ccc(C3CC3)nc2)ccn1 [Example 107, 6-cyclopropyl-N-(3-(1-cyclopropyl-1H-imidazol-5-yl)phenyl)-3,4′-bipyridine-2′-carboxamide]
41 | O=C(Nc1cccc(-c2cncn2C2CC2)c1)c1cc(-c2cnc3ccccc3c2)ccn1 [Example 108, N-(3-(1-cyclopropyl-1H-imidazol-5-yl)phenyl)-4-(quinolin-3-yl)picolinamide]
21 | O=C(Nc1cccc(-c2nncn2C2CC2)c1)c1cc(-c2ccc(C3CCCC3)nc2)ccn1 [Example 109, 6-cyclopentyl-N-(3-(4-cyclopropyl-4H-1,2,4-triazol-3-yl)phenyl)-3,4′-bipyridine-2′-carboxamide]
8 | CN1CCC(c2ccc(-c3ccnc(C(=O)Nc4cccc(-c5nncn5C5CC5)c4)c3)cn2)C1=O (stereo not drawn) [Example 110, N-(3-(4-cyclopropyl-4H-1,2,4-triazol-3-yl)phenyl)-6-(1-methyl-2-oxopyrrolidin-3-yl)-3,4′-bipyridine-2′-carboxamide]
9 | CNS(=O)(=O)c1ccc(-c2ccnc(C(=O)Nc3cccc(-c4nncn4C4CC4)n3)c2)cc1 [Example 111, N-(6-(4-cyclopropyl-4H-1,2,4-triazol-3-yl)pyridin-2-yl)-4-(4-(N-methylsulfamoyl)phenyl)picolinamide]
14 | O=C(Nc1cccc(-c2nncn2C2CC2)n1)c1cc(-c2cnc3ccccc3c2)ccn1 [Example 112, N-(6-(4-cyclopropyl-4H-1,2,4-triazol-3-yl)pyridin-2-yl)-4-(quinolin-3-yl)picolinamide]
10 | O=C(Nc1cccc(-c2nncn2C2CC2)n1)c1cc(-n2cnc(-c3ccccc3)c2)ccn1 [Example 113, N-(6-(4-cyclopropyl-4H-1,2,4-triazol-3-yl)pyridin-2-yl)-4-(4-phenyl-1H-imidazol-1-yl)picolinamide]
5 | CCCc1ccc(-c2ccnc(C(=O)Nc3cccc(-c4nncn4C4CC4)c3)c2)cn1 [Example 114, N-(3-(4-cyclopropyl-4H-1,2,4-triazol-3-yl)phenyl)-6-propyl-3,4′-bipyridine-2′-carboxamide]
15 | CC(C)(C)Cc1ccc(-c2ccnc(C(=O)Nc3cccc(-c4nncn4C4CC4)c3)c2)cn1 [Example 115, N-(3-(4-cyclopropyl-4H-1,2,4-triazol-3-yl)phenyl)-6-neopentyl-3,4′-bipyridine-2′-carboxamide]
23 | Cn1c(-c2ccnc(C(=O)Nc3cccc(-c4nncn4C4CC4)c3)c2)cnc1-c1ccccc1 [Example 116, N-(3-(4-cyclopropyl-4H-1,2,4-triazol-3-yl)phenyl)-4-(1-methyl-2-phenyl-1H-imidazol-5-yl)picolinamide]
12 | CCS(=O)(=O)c1ccc(-c2ccnc(C(=O)Nc3cccc(-c4nncn4C4CC4)c3)c2)cc1 [Example 117, N-(3-(4-cyclopropyl-4H-1,2,4-triazol-3-yl)phenyl)-4-(4-(ethylsulfonyl)phenyl)picolinamide]
9 | CC(C)S(=O)(=O)c1ccc(-c2ccnc(C(=O)Nc3cccc(-c4nncn4C4CC4)c3)c2)cc1 [Example 118, N-(3-(4-cyclopropyl-4H-1,2,4-triazol-3-yl)phenyl)-4-(4-(isopropylsulfonyl)phenyl)picolinamide]
6 | O=C(Nc1cccc(-c2nncn2C2CC2)c1)c1cc(-c2ccc(NC3CC3)nc2)ccn1 [Example 120, N-(3-(4-cyclopropyl-4H-1,2,4-triazol-3-yl)phenyl)-6-(cyclopropylamino)-3,4′-bipyridine-2′-carboxamide]
47 | O=C(Nc1cccc(-c2nncn2C2CC2)c1)c1cc(-c2cnc3scnn23)ccn1 [Example 121, N-(3-(4-cyclopropyl-4H-1,2,4-triazol-3-yl)phenyl)-4-(imidazo[2,1-b][1,3,4]thiadiazol-5-yl)picolinamide]

IC50 [nM] | Structure (SMILES)
17 | O=C(Nc1cccc(-c2nncn2C2CC2)c1)c1cc(-n2cnc(Cl)c2)ccn1 [Example 122, 4-(4-chloro-1H-imidazol-1-yl)-N-(3-(4-cyclopropyl-4H-1,2,4-triazol-3-yl)phenyl)picolinamide]
10 | O=C(Nc1cccc(-c2nncn2C2CC2)c1)c1cc(-c2cnc(C3CC3)nc2)ccn1 [Example 123, N-(3-(4-cyclopropyl-4H-1,2,4-triazol-3-yl)phenyl)-4-(2-cyclopropylpyrimidin-5-yl)picolinamide]
422 | O=C(Nc1cccc(-c2nncn2C2CC2)c1)c1cc(-c2cccnc2)cc(C(F)(F)F)n1 [Example 124, N-(3-(4-cyclopropyl-4H-1,2,4-triazol-3-yl)phenyl)-6′-(trifluoromethyl)-3,4′-bipyridine-2′-carboxamide]
1450 | O=C(Nc1cccc(-c2nncn2C2CC2)c1)c1cc(-c2cnc3ccccc3c2)cc(C(F)(F)F)n1 [Example 125, N-(3-(4-cyclopropyl-4H-1,2,4-triazol-3-yl)phenyl)-4-(quinolin-3-yl)-6-(trifluoromethyl)picolinamide]
1040 | O=C(Nc1cccc(-c2cncn2C2CC2)n1)c1cc(-c2cnc3ccccc3c2)ccn1 [Example 126, N-(6-(1-cyclopropyl-1H-imidazol-5-yl)pyridin-2-yl)-4-(quinolin-3-yl)picolinamide]
211 | O=C(Nc1cccc(-c2cncn2C2CC2)n1)c1cc(-c2ccc(C3CC3)nc2)ccn1 [Example 127, 6-cyclopropyl-N-(6-(1-cyclopropyl-1H-imidazol-5-yl)pyridin-2-yl)-3,4′-bipyridine-2′-carboxamide]
6 | O=C(Nc1cccc(-c2nncn2C2CC2)c1)c1cc(-c2cnc3cc[nH]c3c2)ccn1 [Example 128, N-(3-(4-cyclopropyl-4H-1,2,4-triazol-3-yl)phenyl)-4-(1H-pyrrolo[3,2-b]pyridin-6-yl)picolinamide]
22 | O=C(Nc1cccc(-c2nncn2C2CC2)c1)c1cc(-c2ccc(C3CC3)cc2)ccn1 [Example 129, N-(3-(4-cyclopropyl-4H-1,2,4-triazol-3-yl)phenyl)-4-(4-cyclopropylphenyl)picolinamide]
12 | O=C(Nc1cccc(-c2nncn2C2CC2)n1)c1cccc(-c2cccnc2)c1 [Example 130, N-(6-(4-cyclopropyl-4H-1,2,4-triazol-3-yl)pyridin-2-yl)-3-(pyridin-3-yl)benzamide]
11 | CSc1ccc(-c2ccnc(C(=O)Nc3cccc(-c4nncn4C4CC4)c3)c2)cn1 [Example 131, N-(3-(4-cyclopropyl-4H-1,2,4-triazol-3-yl)phenyl)-6-(methylthio)-3,4′-bipyridine-2′-carboxamide]
150 | CC(C)CSc1ccc(-c2ccnc(C(=O)Nc3cccc(-c4nncn4C4CC4)c3)c2)cn1 [Example 132, N-(3-(4-cyclopropyl-4H-1,2,4-triazol-3-yl)phenyl)-6-(isobutylthio)-3,4′-bipyridine-2′-carboxamide]
10 | O=C(Nc1cccc(-c2nncn2C2CC2)c1)c1cc(-c2cnc(C3CC3)cn2)ccn1 [Example 133, N-(3-(4-cyclopropyl-4H-1,2,4-triazol-3-yl)phenyl)-4-(5-cyclopropylpyrazin-2-yl)picolinamide]
34 | O=C(Nc1cccc(-c2nncn2C2CC2)c1)c1cc(-c2cnc(C3CC3)c(F)c2)ccn1 [Example 134, 6-cyclopropyl-N-(3-(4-cyclopropyl-4H-1,2,4-triazol-3-yl)phenyl)-5-fluoro-3,4′-bipyridine-2′-carboxamide]
131 | O=C(Nc1cccc(-c2nncn2C2CC2)c1)c1cc(-c2cnc(C3CC3)c(Cl)c2)ccn1 [Example 135, 5-chloro-6-cyclopropyl-N-(3-(4-cyclopropyl-4H-1,2,4-triazol-3-yl)phenyl)-3,4′-bipyridine-2′-carboxamide]
7 | COCCNc1ccc(-c2ccnc(C(=O)Nc3cccc(-c4nncn4C4CC4)c3)c2)cn1 [Example 136, N-(3-(4-cyclopropyl-4H-1,2,4-triazol-3-yl)phenyl)-6-(2-methoxyethylamino)-3,4′-bipyridine-2′-carboxamide]
31 | CS(=O)(=O)N1CCN(c2ccnc(C(=O)Nc3cccc(-c4nncn4C4CC4)c3)c2)CC1 [Example 137, N-(3-(4-cyclopropyl-4H-1,2,4-triazol-3-yl)phenyl)-4-(4-(methylsulfonyl)piperazin-1-yl)picolinamide]
8 | CCc1ncc(-c2ccnc(C(=O)Nc3cccc(-c4nncn4C4CC4)c3)c2)cc1F [Example 138, N-(3-(4-cyclopropyl-4H-1,2,4-triazol-3-yl)phenyl)-6-ethyl-5-fluoro-3,4′-bipyridine-2′-carboxamide]

Structure (SMILES) | IC50 [nM]
CCNc1ccc(-c2ccnc(C(=O)Nc3cccc(-c4nncn4C4CC4)c3)c2)cn1 [Example 119, N-(3-(4-cyclopropyl-4H-1,2,4-triazo1-3-yl)phenyl)-6-(ethylamino)-3,4′-bipyridine-2′-carboxamide] | 9
